Data on 77 sequences can be found in the supplement of paper PMC11208160.

A short description of the series: recombinant barcode read abundance after kanamycin selection (control-corrected) (log10(CPM+1)); higher = more efficient recombination; sequences stand for … in AGTGCAGAGAAAATCGGCCAGTTTTCTCTGCCTGCAGTCCGCATGCCGT…AGATTTATGCAGCGGACTGCCTTTCTCCCAAAGTGATAAACCGGACAGTATCATGGACCGGTTTTCCCGGTAATCCGTATTTGCAAGGTTGGTTTCACT; site = the 11-nt target. In short, it runs like this:
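A vector carrying a T7-inducible recombinase and the last 73 bp of the bridge RNA received, by Gibson cloning, oligos encoding a promoter, target, barcode and the first 104 bridge RNA bases under J23119. The pooled constructs entered E. coli together with a donor plasmid by electroporation. Selection used chloramphenicol/ampicillin/kanamycin with 0.1 mM IPTG, with chloramphenicol/ampicillin LB agar as the control, each in two replicates. Recombination efficiency is the averaged, control-corrected counts-per-million of barcodes at recombinant junctions, reported as log10(CPM+1).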
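Note: IS621 recombinase and bridge RNA in Escherichia coli cells.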

In the case of “AGCATCCCTTGGGTTCTAACCTGTTGCTG (site CATGCGACTAC)”, the “recombinant barcode read abundance (log10)” value was determined as 0.342.

Turning to “AGCCACTCTTGGGTTCTAACCTGTTGCCT (site AGCCACACTAG)”, the “recombinant barcode read abundance (log10)” value is 0.0426.

In the case of “AGCCACTCTTGGGTTCTAACCTGTTGCCT (site AGCCACCCTAG)”, the “recombinant barcode read abundance (log10)” value came to 0.149.

For the sequence “AGCCACTCTTGGGTTCTAACCTGTTGCCT (site AGCCACGCTAG)”, the “recombinant barcode read abundance (log10)” value came out at 0.153.

As for “AGCCACTCTTGGGTTCTAACCTGTTGCCT (site AGCCACTCTAG)”, the “recombinant barcode read abundance (log10)” value is 1.49.

With “AGCCAGGCTTGGGTTCTAACCTGTTGCGG (site AGCCAGGCTCC)”, the “recombinant barcode read abundance (log10)” value came to 1.76.

In the case of “AGCCAGGCTTGGGTTCTAACCTGTTGCGG (site TCGTTTCCTAT)”, the “recombinant barcode read abundance (log10)” value came to 0.0575.

Take “AGCCCTCCTTGGGTTCTAACCTGTTGCAG (site AGCCCTCCTCT)”: the “recombinant barcode read abundance (log10)” value amounted to 1.86.

On to “AGCCCTCCTTGGGTTCTAACCTGTTGCAG (site GAAATAACTAC)”, for which the “recombinant barcode read abundance (log10)” value is 0.114.

As for “AGCCCTCCTTGGGTTCTAACCTGTTGCAT (site AGCCCTCCTAT)”, the “recombinant barcode read abundance (log10)” value turned out to be 1.41.

Regarding “AGCCCTCCTTGGGTTCTAACCTGTTGCAT (site AGCGCTCCTAC)”, the “recombinant barcode read abundance (log10)” value stood at 0.0462.

As for “AGCCCTCCTTGGGTTCTAACCTGTTGCTA (site AGCCCTCCTAA)”, the “recombinant barcode read abundance (log10)” value was determined as 0.0446.

As to “AGCCCTCCTTGGGTTCTAACCTGTTGCTA (site AGCCCTCCTCA)”, the “recombinant barcode read abundance (log10)” value was found to be 0.449.

For the sequence “AGCCCTCCTTGGGTTCTAACCTGTTGCTA (site AGCCCTCCTGA)”, the “recombinant barcode read abundance (log10)” value came to 0.222.

In the case of “AGCCCTCCTTGGGTTCTAACCTGTTGCTA (site AGCCCTCCTTA)”, the “recombinant barcode read abundance (log10)” value turned out to be 1.37.

With “AGCCCTCCTTGGGTTCTAACCTGTTGCTG (site AGCCCTCCTAA)”, the “recombinant barcode read abundance (log10)” value amounted to 0.0691.

With “AGCCCTCCTTGGGTTCTAACCTGTTGCTG (site AGCCCTCCTCA)”, the “recombinant barcode read abundance (log10)” value is 1.49.

Regarding “AGCCCTCCTTGGGTTCTAACCTGTTGCTG (site AGCCCTCCTGA)”, the “recombinant barcode read abundance (log10)” value came out at 0.109.

On to “AGCCCTCCTTGGGTTCTAACCTGTTGCTG (site AGCCCTCCTTA)”, for which the “recombinant barcode read abundance (log10)” value came to 0.0866.

Take “AGCCGAACTTGGGTTCTAACCTGTTGCCT (site AGCCGAACTAG)”: the “recombinant barcode read abundance (log10)” value was 0.832.

On to “AGCCGAACTTGGGTTCTAACCTGTTGCCT (site CGCCGAACTAG)”, for which the “recombinant barcode read abundance (log10)” value came out at 0.11.

As for “AGCCGAACTTGGGTTCTAACCTGTTGCCT (site GGCCGAACTAG)”, the “recombinant barcode read abundance (log10)” value amounted to 0.478.

As for “AGCCGAACTTGGGTTCTAACCTGTTGCCT (site TGCCGAACTAG)”, the “recombinant barcode read abundance (log10)” value amounted to 0.0692.

Regarding “AGCCTATCTTGGGTTCTAACCTGTTGCCA (site AGCCTATCTTG)”, the “recombinant barcode read abundance (log10)” value is 0.101.

For “AGCCTATCTTGGGTTCTAACCTGTTGCCA (site CTAGCCGCTAA)”, the “recombinant barcode read abundance (log10)” value stood at 0.109.

For the sequence “AGCCTTACTTGGGTTCTAACCTGTTGCCT (site AACCTTACTAG)”, the “recombinant barcode read abundance (log10)” value is 0.106.

Regarding “AGCCTTACTTGGGTTCTAACCTGTTGCCT (site ACCCTTACTAG)”, the “recombinant barcode read abundance (log10)” value is 0.275.

For “AGCCTTACTTGGGTTCTAACCTGTTGCCT (site AGCCTTACTAG)”, the “recombinant barcode read abundance (log10)” value turned out to be 0.171.

As for “AGCCTTACTTGGGTTCTAACCTGTTGCCT (site ATCCTTACTAG)”, the “recombinant barcode read abundance (log10)” value came to 0.122.

“AGCCTTGCTTGGGTTCTAACCTGTTGCCT (site AGCATTGCTAG)”: the “recombinant barcode read abundance (log10)” value stood at 0.0195.

Consider “AGCCTTGCTTGGGTTCTAACCTGTTGCCT (site AGCCTTGCTAG)”, for which the “recombinant barcode read abundance (log10)” value is 0.7.

“AGCCTTGCTTGGGTTCTAACCTGTTGCCT (site AGCGTTGCTAG)”: the “recombinant barcode read abundance (log10)” value was determined as 0.566.

Take “AGCCTTGCTTGGGTTCTAACCTGTTGCCT (site AGCTTTGCTAG)”: the “recombinant barcode read abundance (log10)” value was 0.167.

For “AGCGAAGCTTGGGTTCTAACCTGTTGCCT (site AGCGAAGCTAG)”, the “recombinant barcode read abundance (log10)” value amounted to 0.382.

“AGCGAAGCTTGGGTTCTAACCTGTTGCCT (site AGCGAGGCTAG)”: the “recombinant barcode read abundance (log10)” value came out at 0.3.

In the case of “AGCGAATCTTGGGTTCTAACCTGTTGCCT (site AGAGAATCTAG)”, the “recombinant barcode read abundance (log10)” value was 0.0521.

On to “AGCGAATCTTGGGTTCTAACCTGTTGCCT (site AGCGAATCTAG)”, for which the “recombinant barcode read abundance (log10)” value is 0.719.

Regarding “AGCGAATCTTGGGTTCTAACCTGTTGCCT (site AGGGAATCTAG)”, the “recombinant barcode read abundance (log10)” value came to 0.323.

For the sequence “AGCGAATCTTGGGTTCTAACCTGTTGCCT (site AGTGAATCTAG)”, the “recombinant barcode read abundance (log10)” value worked out at 0.158.

As for “AGCGACCCTTGGGTTCTAACCTGTTGCGT (site AGCGACCCTAC)”, the “recombinant barcode read abundance (log10)” value was 3.18.

As for “AGCGACCCTTGGGTTCTAACCTGTTGCGT (site CGCGATCCTAC)”, the “recombinant barcode read abundance (log10)” value amounted to 0.16.

In the case of “AGCGAGTCTTGGGTTCTAACCTGTTGCCT (site AACGAGTCTAG)”, the “recombinant barcode read abundance (log10)” value was found to be 0.951.

As for “AGCGAGTCTTGGGTTCTAACCTGTTGCCT (site ACCGAGTCTAG)”, the “recombinant barcode read abundance (log10)” value was 0.817.

As to “AGCGAGTCTTGGGTTCTAACCTGTTGCCT (site AGCGAGTCTAG)”, the “recombinant barcode read abundance (log10)” value stood at 2.08.

On to “AGCGAGTCTTGGGTTCTAACCTGTTGCCT (site ATCGAGTCTAG)”, for which the “recombinant barcode read abundance (log10)” value stood at 0.465.

Consider “AGCGCTACTTGGGTTCTAACCTGTTGCCT (site ACCGCTACTAG)”, for which the “recombinant barcode read abundance (log10)” value amounted to 0.121.

On to “AGCGCTACTTGGGTTCTAACCTGTTGCCT (site AGCGCTACTAG)”, for which the “recombinant barcode read abundance (log10)” value came to 0.145.

Take “AGCTAACCTTGGGTTCTAACCTGTTGCCT (site AGCTAACCTAG)”: the “recombinant barcode read abundance (log10)” value is 0.407.

Consider “AGCTAACCTTGGGTTCTAACCTGTTGCCT (site AGTGAACCTAG)”, for which the “recombinant barcode read abundance (log10)” value was found to be 0.127.

As to “AGCTACCCTTGGGTTCTAACCTGTTGCTT (site ACCTACTCTAA)”, the “recombinant barcode read abundance (log10)” value was 0.0582.

For the sequence “AGCTACCCTTGGGTTCTAACCTGTTGCTT (site AGCTACCCTAA)”, the “recombinant barcode read abundance (log10)” value was 0.62.

For “AGCTCCTCTTGGGTTCTAACCTGTTGCCT (site AGCTCCTCTAG)”, the “recombinant barcode read abundance (log10)” value came out at 0.0883.

As for “AGCTCCTCTTGGGTTCTAACCTGTTGCCT (site CGCTCCTCTAG)”, the “recombinant barcode read abundance (log10)” value turned out to be 0.144.

For “AGCTCCTCTTGGGTTCTAACCTGTTGCCT (site GGCTCCTCTAG)”, the “recombinant barcode read abundance (log10)” value is 0.0482.

As to “AGCTCCTCTTGGGTTCTAACCTGTTGCCT (site TGCTCCTCTAG)”, the “recombinant barcode read abundance (log10)” value worked out at 0.0453.

As for “AGCTCGTCTTGGGTTCTAACCTGTTGCGG (site AGCTCGTCTCC)”, the “recombinant barcode read abundance (log10)” value was 0.448.

For the sequence “AGCTCGTCTTGGGTTCTAACCTGTTGCGG (site AGTTCGTCTCG)”, the “recombinant barcode read abundance (log10)” value turned out to be 0.191.

As for “AGCTGGGCTTGGGTTCTAACCTGTTGCCT (site AACTGGGCTAG)”, the “recombinant barcode read abundance (log10)” value is 0.0885.

For the sequence “AGCTGGGCTTGGGTTCTAACCTGTTGCCT (site ACCTGGGCTAG)”, the “recombinant barcode read abundance (log10)” value came to 0.101.

Take “AGCTGGGCTTGGGTTCTAACCTGTTGCCT (site AGCTGGGCTAG)”: the “recombinant barcode read abundance (log10)” value came to 0.235.

For “AGCTGGGCTTGGGTTCTAACCTGTTGCCT (site ATCTGGGCTAG)”, the “recombinant barcode read abundance (log10)” value is 0.11.

Turning to “AGCTTATCTTGGGTTCTAACCTGTTGCCT (site AGCTAAACTAG)”, the “recombinant barcode read abundance (log10)” value worked out at 0.131.

Turning to “AGCTTATCTTGGGTTCTAACCTGTTGCCT (site AGCTTATCTAG)”, the “recombinant barcode read abundance (log10)” value amounted to 0.179.

On to “AGGAACACTTGGGTTCTAACCTGTTGCTT (site AGGAACACTAA)”, for which the “recombinant barcode read abundance (log10)” value amounted to 1.56.

Consider “AGGAACACTTGGGTTCTAACCTGTTGCTT (site AGGAACACTCA)”, for which the “recombinant barcode read abundance (log10)” value was 0.279.

For the sequence “AGGAACCCTTGGGTTCTAACCTGTTGCTT (site AGGAACCCTAA)”, the “recombinant barcode read abundance (log10)” value came to 0.911.

Regarding “AGGAACCCTTGGGTTCTAACCTGTTGCTT (site AGGAACCCTCA)”, the “recombinant barcode read abundance (log10)” value was determined as 0.328.

As to “AGGAACCCTTGGGTTCTAACCTGTTGCTT (site AGGAACCCTGA)”, the “recombinant barcode read abundance (log10)” value came to 0.127.

As for “AGGAACCCTTGGGTTCTAACCTGTTGCTT (site AGGAACCCTTA)”, the “recombinant barcode read abundance (log10)” value turned out to be 0.256.

Consider “AGGAAGACTTGGGTTCTAACCTGTTGCGG (site AGGAAGACTCC)”, for which the “recombinant barcode read abundance (log10)” value is 3.01.

Consider “AGGAAGACTTGGGTTCTAACCTGTTGCGG (site AGGAAGACTCG)”, for which the “recombinant barcode read abundance (log10)” value turned out to be 0.25.

Consider “AGGAAGGCTTGGGTTCTAACCTGTTGCCA (site AGGAAGGCTTG)”, for which the “recombinant barcode read abundance (log10)” value is 0.693.

Turning to “AGGAAGGCTTGGGTTCTAACCTGTTGCCA (site GACGTAACTCT)”, the “recombinant barcode read abundance (log10)” value is 0.145.

For the sequence “AGGACTACTTGGGTTCTAACCTGTTGCCT (site AGAACTACTAG)”, the “recombinant barcode read abundance (log10)” value is 0.217.

With “AGGACTACTTGGGTTCTAACCTGTTGCCT (site AGGACTACTAG)”, the “recombinant barcode read abundance (log10)” value was determined as 1.3.

In the case of “AGGAGAGCTTGGGTTCTAACCTGTTGCTT (site AGGAGAGCTAA)”, the “recombinant barcode read abundance (log10)” value was 1.13.

With “AGGAGAGCTTGGGTTCTAACCTGTTGCTT (site CTAGCGACTGT)”, the “recombinant barcode read abundance (log10)” value was determined as 0.0392.
